Source: ChEMBL document CHEMBL5365518, “Synthesis and Validation of the First Cell-Impermeable Hsp90α-Selective Inhibitors” (ACS Med Chem Lett, 2023)
pIC50: −log10 of the molar value. The source made the active and inactive calls. No cut-off for these calls is given here.

Assays:
[1] = target: T1, Heat shock protein 75 kDa, mitochondrial (Homo sapiens, UniProt Q12931); assay: Binding affinity to Trap1 (unknown origin) incubated for 24 hrs by fluorescence polarization assay
T1 sequence (Q12931 whole entry): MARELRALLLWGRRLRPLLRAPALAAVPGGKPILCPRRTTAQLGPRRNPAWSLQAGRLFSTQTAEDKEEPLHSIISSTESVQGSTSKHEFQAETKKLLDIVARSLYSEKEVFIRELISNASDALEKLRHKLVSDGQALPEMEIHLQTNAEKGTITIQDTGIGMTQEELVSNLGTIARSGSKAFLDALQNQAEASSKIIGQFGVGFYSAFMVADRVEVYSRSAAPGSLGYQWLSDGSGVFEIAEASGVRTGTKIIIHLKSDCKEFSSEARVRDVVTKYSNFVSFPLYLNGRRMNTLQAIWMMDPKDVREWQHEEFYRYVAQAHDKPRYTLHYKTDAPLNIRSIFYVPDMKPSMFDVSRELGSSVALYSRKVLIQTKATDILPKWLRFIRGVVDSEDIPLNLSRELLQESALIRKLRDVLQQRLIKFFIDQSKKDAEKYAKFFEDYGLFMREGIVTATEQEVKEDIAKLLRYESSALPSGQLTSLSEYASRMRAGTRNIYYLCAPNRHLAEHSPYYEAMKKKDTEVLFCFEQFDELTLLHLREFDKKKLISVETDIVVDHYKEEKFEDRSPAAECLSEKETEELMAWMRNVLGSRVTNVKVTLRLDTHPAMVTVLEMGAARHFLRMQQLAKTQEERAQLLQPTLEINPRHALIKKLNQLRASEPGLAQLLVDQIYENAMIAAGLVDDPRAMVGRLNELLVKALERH

[2] = target: Heat shock protein HSP 90-beta (Homo sapiens, UniProt P08238); assay: Binding affinity HSP90beta (unknown origin) incubated for 24 hrs by fluorescence polarization assay
[3] = tested on: OVCAR-8; assay: Antiproliferative activity against human OVCAR-8 cells assessed as inhibition of cell growth incubated for 72 hrs by MTS assay; assay type: functional, cell-based; conditions: OVCAR-8, 72 h
[4] = target: Endoplasmin (Homo sapiens, UniProt P14625); assay: Binding affinity to Grp94 (unknown origin) incubated for 24 hrs by fluorescence polarization assay
[5] = target: Heat shock protein HSP 90-alpha (Homo sapiens, UniProt P07900); assay: Binding affinity HSP90alpha (unknown origin) incubated for 24 hrs by fluorescence polarization assay
[6] = Antiproliferative activity against human MCF-10A cells assessed as inhibition of cell growth incubated for 72 hrs by MTS assay; assay type: toxicity, cell-based
[7] = Effective permeability of compound in PBS buffer at pH 7.4 incubated for 5 hrs by PAMPA assay; assay type: ADME; conditions: read-out: Peff
[8] = tested on: OVCAR-8; assay: Induction of heat shock response in human OVCAR-8 cells assessed as increase in HSP90 level at 100 nM incubated for 24 hrs by Western blot analysis; assay type: functional, cell-based
[9] = Selectivity index, ratio of IC50 for binding affinity to HSP90beta (unknown origin) to IC50 for binding affinity to HSP90alpha (unknown origin)
[10] = target: RAC-alpha serine/threonine-protein kinase (Homo sapiens) (UniProt P31749); assay: Induction of AKT degradation in human OVCAR-8 cells incubated for 24 hrs by Western blot analysis; assay type: cell-based; conditions: dose 1-100 µM
[11] = tested on: OVCAR-8; assay: Induction of heat shock response in human OVCAR-8 cells assessed as increase in HSP90 level at 1 to 100 uM incubated for 24 hrs by Western blot analysis; assay type: functional, cell-based; conditions: dose 1-100 µM
[12] = target: RAC-alpha serine/threonine-protein kinase (Homo sapiens) (UniProt P31749); assay: Induction of AKT degradation in human OVCAR-8 cells at 1 to 100 uM incubated for 24 hrs by Western blot analysis; assay type: cell-based; conditions: dose 1-100 µM
[13] = target: Heat shock protein HSP90 (Homo sapiens, UniProt P07900+P08238); assay: Disruption of HSP90-mediated hERG channel maturation transfected in HEK293 cells assessed as appearance of fully glycosylated form at 100 uM incubated for 24 hrs by Western blot analysis; assay type: toxicity, cell-based; conditions: hek293, 24 h
[14] = tested on: OVCAR-8; assay: Effect on TGFbetaR level in human OVCAR-8 cells at 1 to 100 uM incubated for 24 hrs by Western blot analysis; assay type: functional, cell-based; conditions: dose 1-100 µM
[15] = tested on: OVCAR-8; assay: Effect on TLR2 level in human OVCAR-8 cells at 1 to 100 uM incubated for 24 hrs by Western blot analysis; assay type: functional, cell-based; conditions: dose 1-100 µM
[16] = tested on: OVCAR-8; assay: Effect on HER2 level in human OVCAR-8 cells at 1 to 100 uM incubated for 24 hrs by Western blot analysis; assay type: functional, cell-based; conditions: dose 1-100 µM
[17] = target: RAC-alpha serine/threonine-protein kinase (Homo sapiens) (UniProt P31749); assay: Inhibition of AKT phosphorylation in human OVCAR-8 cells assessed as reduction in pAKT level incubated for 24 hrs by Western blot analysis; assay type: cell-based; conditions: dose 1-100 µM

Chain of Heat shock protein HSP 90-beta (P08238 whole entry): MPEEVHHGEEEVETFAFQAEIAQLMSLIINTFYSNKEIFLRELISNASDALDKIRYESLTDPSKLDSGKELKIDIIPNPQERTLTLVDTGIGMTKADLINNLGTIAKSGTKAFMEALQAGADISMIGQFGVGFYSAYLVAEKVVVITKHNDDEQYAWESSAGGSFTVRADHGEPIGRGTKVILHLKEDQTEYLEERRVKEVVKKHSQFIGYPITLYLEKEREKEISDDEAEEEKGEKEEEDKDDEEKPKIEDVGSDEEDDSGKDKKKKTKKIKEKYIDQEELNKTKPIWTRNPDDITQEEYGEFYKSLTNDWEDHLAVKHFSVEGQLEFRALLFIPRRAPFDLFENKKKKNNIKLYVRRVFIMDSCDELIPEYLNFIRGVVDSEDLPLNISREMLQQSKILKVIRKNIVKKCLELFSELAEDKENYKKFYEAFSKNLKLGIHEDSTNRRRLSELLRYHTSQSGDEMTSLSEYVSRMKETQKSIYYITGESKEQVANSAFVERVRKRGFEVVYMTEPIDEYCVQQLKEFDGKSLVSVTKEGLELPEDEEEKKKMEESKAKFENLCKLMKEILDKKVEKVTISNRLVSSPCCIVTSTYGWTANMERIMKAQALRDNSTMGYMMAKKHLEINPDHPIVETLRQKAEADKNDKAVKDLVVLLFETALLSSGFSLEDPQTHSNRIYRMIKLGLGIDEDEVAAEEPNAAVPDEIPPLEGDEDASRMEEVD
Chain of Endoplasmin (P14625 whole entry): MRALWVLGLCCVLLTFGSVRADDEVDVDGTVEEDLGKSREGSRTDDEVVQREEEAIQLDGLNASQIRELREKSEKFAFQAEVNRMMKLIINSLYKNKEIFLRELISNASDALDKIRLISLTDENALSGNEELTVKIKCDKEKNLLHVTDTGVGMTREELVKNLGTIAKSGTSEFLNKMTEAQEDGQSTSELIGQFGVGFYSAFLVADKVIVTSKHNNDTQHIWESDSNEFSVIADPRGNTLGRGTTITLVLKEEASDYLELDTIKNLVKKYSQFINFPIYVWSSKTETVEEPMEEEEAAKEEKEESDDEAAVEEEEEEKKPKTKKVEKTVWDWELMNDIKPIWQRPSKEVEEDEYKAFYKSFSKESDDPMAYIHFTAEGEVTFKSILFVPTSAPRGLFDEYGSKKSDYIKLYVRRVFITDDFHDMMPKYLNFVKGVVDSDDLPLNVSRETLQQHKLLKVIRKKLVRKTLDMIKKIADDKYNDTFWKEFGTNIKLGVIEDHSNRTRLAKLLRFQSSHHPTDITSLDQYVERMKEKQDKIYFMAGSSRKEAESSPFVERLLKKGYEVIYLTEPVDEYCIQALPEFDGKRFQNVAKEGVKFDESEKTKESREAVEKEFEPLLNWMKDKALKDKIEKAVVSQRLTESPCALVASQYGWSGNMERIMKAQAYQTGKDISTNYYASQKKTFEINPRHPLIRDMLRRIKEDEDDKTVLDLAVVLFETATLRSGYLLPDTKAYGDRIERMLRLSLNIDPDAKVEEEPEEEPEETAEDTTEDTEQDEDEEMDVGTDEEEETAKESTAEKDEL
Chain of RAC-alpha serine/threonine-protein kinase (Homo sapiens) (P31749 whole entry): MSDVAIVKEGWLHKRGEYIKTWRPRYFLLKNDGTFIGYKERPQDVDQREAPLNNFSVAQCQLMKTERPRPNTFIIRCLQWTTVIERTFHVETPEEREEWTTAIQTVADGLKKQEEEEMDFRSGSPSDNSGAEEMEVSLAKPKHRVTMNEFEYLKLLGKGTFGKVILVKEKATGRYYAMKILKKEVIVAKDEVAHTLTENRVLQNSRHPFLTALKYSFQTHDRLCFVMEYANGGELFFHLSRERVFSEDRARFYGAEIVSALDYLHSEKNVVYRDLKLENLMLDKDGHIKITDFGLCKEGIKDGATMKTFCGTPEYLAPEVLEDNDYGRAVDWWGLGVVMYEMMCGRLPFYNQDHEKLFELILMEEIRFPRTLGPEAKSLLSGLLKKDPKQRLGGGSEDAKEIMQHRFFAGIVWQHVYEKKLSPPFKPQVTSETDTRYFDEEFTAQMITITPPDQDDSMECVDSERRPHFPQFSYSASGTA

Row | SMILES | pIC50 [2] | pIC50 [5] | Papp at 5 h [7] | Ratio IC50 [9] | other results
1 | Cc1ccc(Sc2cc(C(=O)N3Cc4ccc(OCCN(C)C)cc4C3)ccc2O)cc1C | 4.02 | 6.07 |  |  | pIC50 [1]: < 4.00; pIC50 [3]: 4.87; pIC50 [4]: < 4.00; IC50 at 72 h [6]: 11.5 µM
2 | Cc1ccc(Sc2cc(C(=O)N3Cc4ccc(OCC[N+](C)(C)C)cc4C3)ccc2O)cc1C.O=C([O-])C(F)(F)F | < 4.00 | 6.19 | 0.775 ×10⁻⁶ cm/s |  | pIC50 [1]: < 4.00; pIC50 [3]: < 4.00; pIC50 [4]: < 4.00; IC50 at 72 h [6]: > 100 µM
3 | CCNC(=O)c1noc(-c2cc(C(C)C)c(O)cc2O)c1-c1ccc(CN2CCOCC2)cc1 |  |  |  |  | Activity [8]: Active
4 | Cc1ccc(Sc2cc(C(=O)N3Cc4ccc(OCCCC[N+](C)(C)C)cc4C3)ccc2O)cc1C | < 4.00 | 5.13 |  | > 13 | 
5 | Cc1ccc(Sc2cc(C(=O)N3Cc4ccc(OCCCC[N+](C)(C)[O-])cc4C3)ccc2O)cc1C | < 4.00 | 4.04 |  |  | 
6 | Cc1ccc(Sc2cc(C(=O)N3Cc4ccc(OCCC[N+](C)(C)[O-])cc4C3)ccc2O)cc1C | < 4.00 | 4.37 |  | > 2 | 
7 | Cc1ccc(Sc2cc(C(=O)N3Cc4ccc(OCC[N+](C)(C)Cc5ccccc5)cc4C3)ccc2O)cc1C | < 4.00 | 6.02 |  | > 104 | 
8 | CC[N+](C)(C)CCOc1ccc2c(c1)CN(C(=O)c1ccc(O)c(Sc3ccc(C)c(C)c3)c1)C2 | 5.08 | 6.44 |  | > 12 | 
9 | CC[N+](C)(C)CCCCOc1ccc2c(c1)CN(C(=O)c1ccc(O)c(Sc3ccc(C)c(C)c3)c1)C2 | < 4.00 | 5.10 |  | > 12 | 
10 | Cc1ccc(Sc2cc(C(=O)N3Cc4ccc(OCCCN(C)C)cc4C3)ccc2O)cc1C | < 4.00 | 6.29 | 2.99 ×10⁻⁶ cm/s |  | pIC50 [1]: < 4.00; Activity [10]: Dose-Dependent Effect; pIC50 [3]: 4.90; pIC50 [4]: < 4.00; Activity [11]: Active; IC50 at 72 h [6]: 11.7 µM
11 | CC[N+](C)(C)CCCOc1ccc2c(c1)CN(C(=O)c1ccc(O)c(Sc3ccc(C)c(C)c3)c1)C2.O=C([O-])C(F)(F)F | < 4.00 | < 4.00 | 1.05 ×10⁻⁶ cm/s |  | 
12 | Cc1ccc(Sc2cc(C(=O)N3Cc4ccc(OCCCCN(C)C)cc4C3)ccc2O)cc1C | < 4.00 | 6.10 |  | > 126 | 
13 | Cc1ccc(Sc2cc(C(=O)N3Cc4ccc(OCCC[N+](C)(C)C)cc4C3)ccc2O)cc1C.O=C([O-])C(F)(F)F | < 4.00 | 6.47 | 0.644 ×10⁻⁶ cm/s |  | Activity [12]: inactive; pIC50 [1]: < 4.00; Activity [13]: Active; Activity [14]: Active; Activity [15]: Active; pIC50 [3]: < 4.00; pIC50 [4]: < 4.00; Activity [11]: inactive; Activity [16]: Active; IC50 at 72 h [6]: > 100 µM; inhibition [17]: Dose-Dependent Effect
14 | Cn1c(=O)c2c(ncn2C)n(C)c1=O [CAFFEINE] |  |  | 17.3 ×10⁻⁶ cm/s |  | 
15 | Cc1ccc(Sc2cc(C(=O)N3Cc4ccc(OCC[N+](C)(C)[O-])cc4C3)ccc2O)cc1C | < 4.00 | < 4.00 |  |  | 
16 | Cc1ccc(Sc2cc(C(=O)N3Cc4ccc(OCCC[N+](C)(C)Cc5ccccc5)cc4C3)ccc2O)cc1C.O=C([O-])C(F)(F)F | < 4.00 | 6.02 | 3.74 ×10⁻⁶ cm/s | > 104 | 
